Values after ≈ are worked out from the molar mass of the structure shown. Where two headings read alike, the source gives them in different places.
Legend:
[1] = tested on: S. aureus DSM2569; assay: MIC, standard microdilution assay, growing S. aureus; assay type: cell-based, Staphylococcus aureus; details: Staphylococcus aureus, DSM2569; S. aureus; CA-MHB pH 7.4; read-out: MIC (μM) CA-MHB
Procedure, shortened: (§1)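 MICs come from microdilution in CA-MHB/40 mM HEPES pH 7.4 for the UPEC, Pseudomonas and Staphylococcus strains, and in TSB for Shigella. UPEC also tested in LPM/30 mM MES pH 5.5.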

[2] = tested on: S. flexneri 5a M90T; assay: MIC in tryptic soy broth, S. flexneri; assay type: cell-based, Shigella flexneri; details: Shigella flexneri, 5AM90T, read-out: MIC (μM) TSB
Procedure, shortened: as §1

[3] = tested on: intracellular S. flexneri 5a M90T in TC7 cells; assay: microbe, parasite or virus in culture; assay type: cell-based, Shigella flexneri; details: for IC50: Shigella flexneri, TC7, 14 h
[4] = tested on: non-growing UPEC CFT073; assay: Dilution-regrowth assay (screen, hit validation, dose-response) on stationary-phase UPEC; assay type: cell-based, Escherichia coli; details: for Regrowth, OD600 at 6h or 8h after dilution into drug-free medium: average; for EC50: Escherichia coli
Procedure, shortened: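 Regrowth (OD600 after 6 h, 37 °C) of diluted non-growing CFT073, following 24 h compound treatment of 24 h stationary cultures, defines activity relative to untreated control. Screen at 20 µM, validation at 20, 10, 5 µM (duplicates), dose–response in three biological replicates fitted by five-parameter logistic.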

[5] = tested on: E. coli CFT073 (UPEC); assay: MIC, standard microdilution assay, growing UPEC; assay type: cell-based, Escherichia coli; details: E. coli; for MIC: Escherichia coli
Procedure, shortened: as §1

[6] = tested on: P. aeruginosa DSM1117; assay: MIC, standard microdilution assay, growing P. aeruginosa; assay type: cell-based, Pseudomonas aeruginosa; details: Pseudomonas aeruginosa, DSM1117, P. aeruginosa
Procedure, shortened: as §1

[7] = TC7 cells infected with GFP-expressing S. flexneri, 14 h treatment
[8] = E. coli in 1:4 CA-MHB (pH 7.4), concentration 0.25
[9] = E. coli in 1:4 CA-MHB (pH 7.4), concentration 0.5
[10] = E. coli in 1:4 CA-MHB (pH 7.4), concentration 1
[11] = E. coli in 1:4 CA-MHB (pH 7.4), concentration 2.5
[12] = E. coli in 1:4 CA-MHB (pH 7.4), concentration 5
[13] = E. coli in 1:4 CA-MHB (pH 7.4), concentration 10
[14] = E. coli in 1:4 CA-MHB (pH 7.4), concentration 30
[15] = E. coli in LPM (pH 5.5), concentration 0.25
[16] = E. coli in LPM (pH 5.5), concentration 0.5
[17] = E. coli in LPM (pH 5.5), concentration 1
[18] = E. coli in LPM (pH 5.5), concentration 2.5
[19] = E. coli in LPM (pH 5.5), concentration 5
[20] = E. coli in LPM (pH 5.5), concentration 10
[21] = E. coli in LPM (pH 5.5), concentration 30
[22] = E. coli, pH 7.4, regrowth delay of non-growing bacteria, 1:4 CA-MHB, 24 h treatment, OD600 6 h after 2500-fold dilution, read-out: EC50
[23] = pH 7.4, CA-MHB, read-out: MIC (μM) CA-MHB
[24] = 1:4 diluted CA-MHB pH 7.4, read-out: MIC (μM) 1:4 CA-MHB
[25] = CA-MHB pH 7.4, read-out: MIC (μM) CA-MHB
[26] = E. coli, LPM pH 5.5, regrowth delay of non-growing bacteria, 24 h treatment, OD600 6 h after 2500-fold dilution, read-out: EC50

Structure (SMILES)	MIC [1] [µM]	MIC [2] [µM]	IC50 [3] [nM]	Fluorescence intensity (RFU), Mean, 2 x MIC [3, 7] [RFU]	Fluorescence intensity (RFU), Mean, 4 x MIC [3, 7] [RFU]	Fluorescence intensity (RFU), Mean, 8 x MIC [3, 7] [RFU]	Fluorescence intensity (RFU), Mean, 16 x MIC [3, 7] [RFU]	Fluorescence intensity (RFU), Mean, 32 x MIC [3, 7] [RFU]	Fluorescence intensity (RFU), Mean, MIC [3, 7] [RFU]	Regrowth, OD600 at 6h or 8h after dilution into drug-free medium [4, 8]	Regrowth, OD600 at 6h or 8h after dilution into drug-free medium [4, 9]	Regrowth, OD600 at 6h or 8h after dilution into drug-free medium [4, 10]	Regrowth, OD600 at 6h or 8h after dilution into drug-free medium [4, 11]	EC50 [4, 22] [nM]	MIC ([5]; LPM pH 5.5, read-out: MIC) [µM]	MIC [5, 23] [µM]	MIC [6, 24] [µM]	MIC [6, 25] [µM]	Fluorescence intensity (RFU), Mean, 0.25 x MIC [3, 7] [RFU]	Fluorescence intensity (RFU), Mean, 0.5 x MIC [3, 7] [RFU]	also measured
CO/N=C1\CN(c2nc3c(cc2F)c(=O)c(C(=O)O)cn3C2CC2)CC1CN (centres unmarked) [Gemifloxacin]	0.125 (≈ 0.0487 µg/mL)	0.0156 (≈ 0.00608 µg/mL)	22	4953.61	3661.36	3159.39	3090.56	2706.11	6688.44	0.556	0.511	0.206	0.090	752	0.25 (≈ 0.0973 µg/mL)	0.025 (≈ 0.00973 µg/mL)	2 (≈ 0.779 µg/mL)	1 (≈ 0.389 µg/mL)			Regrowth, OD600 at 6h or 8h after dilution into drug-free medium [4, 12]: 0.086; Regrowth, OD600 at 6h or 8h after dilution into drug-free medium [4, 13]: 0.083; Regrowth, OD600 at 6h or 8h after dilution into drug-free medium [4, 14]: 0.082; Regrowth, OD600 at 6h or 8h after dilution into drug-free medium [4, 15]: 0.559; Regrowth, OD600 at 6h or 8h after dilution into drug-free medium [4, 16]: 0.564; Regrowth, OD600 at 6h or 8h after dilution into drug-free medium [4, 17]: 0.562; Regrowth, OD600 at 6h or 8h after dilution into drug-free medium [4, 18]: 0.529; Regrowth, OD600 at 6h or 8h after dilution into drug-free medium [4, 19]: 0.513; Regrowth, OD600 at 6h or 8h after dilution into drug-free medium [4, 20]: 0.417; Regrowth, OD600 at 6h or 8h after dilution into drug-free medium [4, 21]: 0.143
O=C(O)c1cn(-c2ccc(F)cc2)c2cc(N3CCNCC3)c(F)cc2c1=O [Sarafloxacin]	1 (≈ 0.385 µg/mL)	0.0625 (≈ 0.0241 µg/mL)	114	5001.97	3626.47	3165.28	2660.39	2149.72	7309.11					1720	0.5 (≈ 0.193 µg/mL)	0.05 (≈ 0.0193 µg/mL)	2 (≈ 0.771 µg/mL)	2 (≈ 0.771 µg/mL)			
CCN1CCN(c2cc3c(cc2F)c(=O)c(C(=O)O)cn3C2CC2)CC1 [Enrofloxacin]	0.5 (≈ 0.18 µg/mL)	0.0625 (≈ 0.0225 µg/mL)	36	2710.72	1953.94	1617.72	1488.39	1501.89	3054.19					5170	0.125 (≈ 0.0449 µg/mL)	0.1 (≈ 0.0359 µg/mL)	4 (≈ 1.44 µg/mL)	4 (≈ 1.44 µg/mL)	7346.62	6043.88	Fluorescence intensity (RFU), Mean, 0.125 x MIC [3, 7]: 8510.46 RFU; EC50 [4, 26]: 21500 nM
CO[C@H]1/C=C/O[C@@]2(C)Oc3c(C)c(O)c4c(O)c(c(/C=N/N5CCN(C)CC5)c(O)c4c3C2=O)NC(=O)/C(C)=C\C=C\[C@H](C)[C@H](O)[C@@H](C)[C@@H](O)[C@@H](C)[C@H](OC(C)=O)[C@@H]1C [Rifampicin]	0.0125 (≈ 0.0103 µg/mL)	8 (≈ 6.58 µg/mL)	3230	1695.78	1392.42	1299.69	1165.58	1042.53	2886.31						0.5 (≈ 0.411 µg/mL)	8 (≈ 6.58 µg/mL)		80 (≈ 65.8 µg/mL)	10619.3	4149.04	Fluorescence intensity (RFU), Mean, 0.0625 x MIC ([3]; TC7 cells infected with GFP-expressing S. flexneri, 14 h treatment, 0.0625 x MIC): 10229.8 RFU; Fluorescence intensity (RFU), Mean, 0.125 x MIC [3, 7]: 10528.2 RFU; EC50 [4, 26]: 950 nM; EC50 ([4]; LPM pH 5.5 (red curve), medium assigned by comparison with Dataset 1, read-out: EC50 (regrowth inhibition curve, Fig. S4)): 970 nM; MIC (μM) CA-MHB +PAβN ([5]; pH 7.4, CA-MHB with 10 μg/ml efflux pump inhibitor PaβN): 1 µM (≈ 0.823 µg/mL); MIC ([5]; pH 7.4, 1:4 diluted CA-MHB, read-out: MIC (μM) 1:4 CA-MHB): 5 µM (≈ 4.11 µg/mL)
CC1COc2c(N3CCN(C)CC3)c(F)cc3c(=O)c(C(=O)O)cn1c23 (centres unmarked) [Ofloxacin]	2 (≈ 0.723 µg/mL)	0.125 (≈ 0.0452 µg/mL)	113	3677.86	3135.58	2241.58	1713.97	1616.14	4797.17	0.670	0.686	0.685	0.648			0.25 (≈ 0.0903 µg/mL)		8 (≈ 2.89 µg/mL)	9690.38	8574.42	Regrowth, OD600 at 6h or 8h after dilution into drug-free medium [4, 12]: 0.610; Regrowth, OD600 at 6h or 8h after dilution into drug-free medium [4, 13]: 0.563; Regrowth, OD600 at 6h or 8h after dilution into drug-free medium [4, 14]: 0.271; Regrowth, OD600 at 6h or 8h after dilution into drug-free medium [4, 15]: 0.591; Regrowth, OD600 at 6h or 8h after dilution into drug-free medium [4, 16]: 0.585; Regrowth, OD600 at 6h or 8h after dilution into drug-free medium [4, 17]: 0.589; Regrowth, OD600 at 6h or 8h after dilution into drug-free medium [4, 18]: 0.574; Regrowth, OD600 at 6h or 8h after dilution into drug-free medium [4, 19]: 0.582; Regrowth, OD600 at 6h or 8h after dilution into drug-free medium [4, 20]: 0.564; Regrowth, OD600 at 6h or 8h after dilution into drug-free medium [4, 21]: 0.570

From paper PMC11992225, “Antibacterial compounds against non-growing and intracellular bacteria” (npj Antimicrobials and Resistance, 2025)
